Columns and labels:
CCRF-CEM = test: NCI 60 five dose assay, Leukemia; type: cell-based, human
RPMI-8226 = test: NCI 60 five dose assay, Leukemia; type: cell-based, human
NCI-H23 = test: NCI 60 five dose assay, Non-small cell lung cancer; type: cell-based, human
HT29 [1] = test: NCI 60 five dose assay, Colon cancer; type: cell-based, human
SF-539 = test: NCI 60 five dose assay, CNS cancer; type: cell-based, human
U251 = test: NCI 60 five dose assay, CNS cancer; type: cell-based, human
SK-MEL-5 = test: NCI 60 five dose assay, Melanoma; type: cell-based, human
IGROV1 = test: NCI 60 five dose assay, Ovarian cancer; type: cell-based, human
OVCAR-3 = test: NCI 60 five dose assay, Ovarian cancer; type: cell-based, human
OVCAR-4 = test: NCI 60 five dose assay, Ovarian cancer; type: cell-based, human
TK-10 = test: NCI 60 five dose assay, Renal cancer; type: cell-based, human
MDA-MB-231/ATCC = test: NCI 60 five dose assay, Breast cancer; type: cell-based, human
T-47D = test: NCI 60 five dose assay, Breast cancer; type: cell-based, human
HCT-116 = test: NCI 60 single dose screen, Colon cancer; type: cell-based, human; details: single dose 10 μM
Method: (§1) The newly synthesized pyrazoles 2a–g, 7a–d, 8a and b, 9, and 10 were submitted to the National Cancer Institute (NCI) Developmental Therapeutics Program (http://www.dtp.nci.nih.gov) for assessment of their potential antiproliferative activity against a panel of NCI 60 cancer cell lines. All compounds were approved for screening against the approved 60 cancer cell lines at a single dose of 10 μM. The human cancer cell lines were derived from 9 variant cancer types including leukemia, melanoma, lung, colon, CNS, ovarian, renal, prostate and breast cancers. The results are presented as percentage of growth inhibition (GI%) of the screened compounds against the full panel of cell lines.
(§2) Under sterile conditions, the cell lines were grown in RPMI 1640 media (Gibco, NY, USA) supplemented with 10% fetal bovine serum (Biocell, CA, USA), and […] cell/mL was used to test the growth inhibition activity of the synthesized compounds. The compounds with concentrations ranging from 0.01 to 100 μM were prepared in phosphate buffer saline. Each compound was initially solubilized in dimethyl sulfoxide (DMSO); however, each final dilution contained less than 1% DMSO. Solutions of different concentrations (0.2 mL) were pipetted into the separate well of a microtiter tray in duplicate. Cell culture (1.8 mL) containing a cell population of […] cells per mL was pipetted into each well. Controls, containing only phosphate buffer saline and DMSO at identical dilutions, were also prepared in the same manner. These cultures were incubated in a humidified incubator at 37 °C. The incubator was supplied with 5% CO2 atmosphere. After 48 h, the cells in each well were diluted 10 times with saline and counted using a Coulter counter. The counts were corrected for the dilution.[34]

HT29 [2] = test: NCI 60 single dose screen, Colon cancer; type: cell-based, human; details: single dose 10 μM
Method: as §1, §2

KM12 = test: NCI 60 single dose screen, Colon cancer; type: cell-based, human; details: single dose 10 μM
Method: as §1, §2

HCT-116 cell line = test: MTT cell viability assay; type: cell-based; details: Homo sapiens, read-out: IC50 (cytotoxicity, MTT)
MDA-MB-468 = test: NCI 60 five dose assay, Breast cancer
[3] = Homo sapiens, read-out: LC50 (the source's name)

CC(=NNc1ccc(S(N)(=O)=O)cc1)c1ccc(NN=C2C(=O)NN=C2Nc2ccccc2)cc1 [Compound 4, 4-(2-(1-(4-(2-(5-oxo-3-(phenylamino)-1,5-dihydro-4H-pyrazol-4-ylidene)hydrazinyl)phenyl)ethylidene)hydrazinyl)benzene sulfonamide]
GI50 (CCRF-CEM; Homo sapiens): 2630 nM
CC50 (CCRF-CEM; [3]): > 100 µM
Percent Growth (CCRF-CEM; Log10 Concentration -4.0 Molar): -31%
Percent Growth (CCRF-CEM; Log10 Concentration -5.0 Molar): -5%
Percent Growth (CCRF-CEM; Log10 Concentration -6.0 Molar): 90%
Percent Growth (CCRF-CEM; Log10 Concentration -7.0 Molar): 100%
Percent Growth (CCRF-CEM; Log10 Concentration -8.0 Molar): 98%
GI50 (RPMI-8226; Homo sapiens): 3.36 µM
CC50 (RPMI-8226; [3]): > 100 µM
Percent Growth (RPMI-8226; Log10 Concentration -4.0 Molar): -15%
Percent Growth (RPMI-8226; Log10 Concentration -5.0 Molar): 12%
Percent Growth (RPMI-8226; Log10 Concentration -6.0 Molar): 92%
Percent Growth (RPMI-8226; Log10 Concentration -7.0 Molar): 101%
Percent Growth (RPMI-8226; Log10 Concentration -8.0 Molar): 101%
GI50 (NCI-H23; Homo sapiens): 2540 nM
CC50 (NCI-H23; [3]): 23.1 µM
Percent Growth (NCI-H23; Log10 Concentration -4.0 Molar): -98%
Percent Growth (NCI-H23; Log10 Concentration -5.0 Molar): -23%
Percent Growth (NCI-H23; Log10 Concentration -6.0 Molar): 99%
Percent Growth (NCI-H23; Log10 Concentration -7.0 Molar): 105%
Percent Growth (NCI-H23; Log10 Concentration -8.0 Molar): 105%
GI50 (HT29 [1]; Homo sapiens, HT-29): 3.58 µM
CC50 (HT29 [1]; Homo sapiens, HT-29, read-out: LC50 (the source's name)): 34 µM
Percent Growth (HT29 [1]; Log10 Concentration -4.0 Molar): -100%
Percent Growth (HT29 [1]; Log10 Concentration -5.0 Molar): 7%
Percent Growth (HT29 [1]; Log10 Concentration -6.0 Molar): 104%
Percent Growth (HT29 [1]; Log10 Concentration -7.0 Molar): 117%
Percent Growth (HT29 [1]; Log10 Concentration -8.0 Molar): 100%
GI50 (SF-539; Homo sapiens): 1580 nM
CC50 (SF-539; [3]): 8.56 µM
Percent Growth (SF-539; Log10 Concentration -4.0 Molar): -100%
Percent Growth (SF-539; Log10 Concentration -5.0 Molar): -59%
Percent Growth (SF-539; Log10 Concentration -6.0 Molar): 77%
Percent Growth (SF-539; Log10 Concentration -7.0 Molar): 94%
Percent Growth (SF-539; Log10 Concentration -8.0 Molar): 89%
GI50 (U251; Homo sapiens, U-251): 1880 nM
CC50 (U251; Homo sapiens, U-251, read-out: LC50 (the source's name)): 7.51 µM
Percent Growth (U251; Log10 Concentration -4.0 Molar): -100%
Percent Growth (U251; Log10 Concentration -5.0 Molar): -71%
Percent Growth (U251; Log10 Concentration -6.0 Molar): 96%
Percent Growth (U251; Log10 Concentration -7.0 Molar): 105%
Percent Growth (U251; Log10 Concentration -8.0 Molar): 95%
GI50 (SK-MEL-5; Homo sapiens): 3.32 µM
CC50 (SK-MEL-5; [3]): 35.8 µM
Percent Growth (SK-MEL-5; Log10 Concentration -4.0 Molar): -100%
Percent Growth (SK-MEL-5; Log10 Concentration -5.0 Molar): 12%
Percent Growth (SK-MEL-5; Log10 Concentration -6.0 Molar): 91%
Percent Growth (SK-MEL-5; Log10 Concentration -7.0 Molar): 100%
Percent Growth (SK-MEL-5; Log10 Concentration -8.0 Molar): 95%
GI50 (IGROV1; Homo sapiens, IGROV-1): 4.5 µM
CC50 (IGROV1; Homo sapiens, IGROV-1, read-out: LC50 (the source's name)): 43.2 µM
Percent Growth (IGROV1; Log10 Concentration -4.0 Molar): -97%
Percent Growth (IGROV1; Log10 Concentration -5.0 Molar): 32%
Percent Growth (IGROV1; Log10 Concentration -6.0 Molar): 85%
Percent Growth (IGROV1; Log10 Concentration -7.0 Molar): 94%
Percent Growth (IGROV1; Log10 Concentration -8.0 Molar): 90%
GI50 (OVCAR-3; Homo sapiens): 1870 nM
CC50 (OVCAR-3; [3]): 12.5 µM
Percent Growth (OVCAR-3; Log10 Concentration -4.0 Molar): -100%
Percent Growth (OVCAR-3; Log10 Concentration -5.0 Molar): -45%
Percent Growth (OVCAR-3; Log10 Concentration -6.0 Molar): 86%
Percent Growth (OVCAR-3; Log10 Concentration -7.0 Molar): 89%
Percent Growth (OVCAR-3; Log10 Concentration -8.0 Molar): 82%
GI50 (OVCAR-4; Homo sapiens): 2840 nM
CC50 (OVCAR-4; [3]): 40.7 µM
Percent Growth (OVCAR-4; Log10 Concentration -4.0 Molar): -80%
Percent Growth (OVCAR-4; Log10 Concentration -5.0 Molar): -3%
Percent Growth (OVCAR-4; Log10 Concentration -6.0 Molar): 94%
Percent Growth (OVCAR-4; Log10 Concentration -7.0 Molar): 98%
Percent Growth (OVCAR-4; Log10 Concentration -8.0 Molar): 94%
GI50 (TK-10; Homo sapiens): 18.6 µM
CC50 (TK-10; [3]): > 100 µM
Percent Growth (TK-10; Log10 Concentration -4.0 Molar): -25%
Percent Growth (TK-10; Log10 Concentration -5.0 Molar): 78%
Percent Growth (TK-10; Log10 Concentration -6.0 Molar): 101%
Percent Growth (TK-10; Log10 Concentration -7.0 Molar): 102%
Percent Growth (TK-10; Log10 Concentration -8.0 Molar): 97%
GI50 (MDA-MB-231/ATCC; Homo sapiens): 2000 nM
CC50 (MDA-MB-231/ATCC; [3]): 8.28 µM
Percent Growth (MDA-MB-231/ATCC; Log10 Concentration -4.0 Molar): -100%
Percent Growth (MDA-MB-231/ATCC; Log10 Concentration -5.0 Molar): -63%
Percent Growth (MDA-MB-231/ATCC; Log10 Concentration -6.0 Molar): 99%
Percent Growth (MDA-MB-231/ATCC; Log10 Concentration -7.0 Molar): 99%
Percent Growth (MDA-MB-231/ATCC; Log10 Concentration -8.0 Molar): 95%
GI50 (T-47D; Homo sapiens, T47D): 2220 nM
CC50 (T-47D; Homo sapiens, T47D, read-out: LC50 (the source's name)): 23.9 µM
Percent Growth (T-47D; Log10 Concentration -4.0 Molar): -88%
Percent Growth (T-47D; Log10 Concentration -5.0 Molar): -27%
Percent Growth (T-47D; Log10 Concentration -6.0 Molar): 91%
Percent Growth (T-47D; Log10 Concentration -7.0 Molar): 98%
Percent Growth (T-47D; Log10 Concentration -8.0 Molar): 90%
GI% (HCT-116): 99.70%
GI% (HT29 [2]): 95.46%
GI% (KM12): 96.31%
IC50 (HCT-116 cell line): 1810 nM
GI50 (MDA-MB-468; Homo sapiens, MDA-MB-468): 1400 nM
CC50 (MDA-MB-468; Homo sapiens, MDA-MB-468, read-out: LC50): 6.41 µM
TGI (MDA-MB-468; MDA-MB-468): 3 µM
